Assay results from patent publication US7420069B2, “Crystalline composition containing escitalopram” (H. Lundbeck A/S, priority 2001, dated 2008).
Structures can show the parent of a compound that is named as a salt.

Experiment: Particle size distribution by laser diffraction (Sympatec Helos)
Format: physicochemical
Details: for particle size: product of the prior process (background statement), method not stated at that place
Description: As used herein, “particle size distribution” means the cumulative volume size distribution of equivalent spherical diameters as determined by laser diffraction at 1 bar dispersive pressure in a Sympatec Helos equipment. “Median particle size”, correspondingly, means the median of said particle size distribution.
A wet filter cake obtained by precipitation of crude escitalopram oxalate by mixing of ethanolic solutions of escitalopram and oxalic acid, respectively, and containing approximately 35 kg escitalopram oxalate was suspended in 322 L ethanol. The material was dissolved by heating to reflux, and 150 L ethanol was removed by distillation. Cooling was applied, and the mixture was cooled from reflux to 15° C. with a cooling rate between 0.2 and 0.5° C./min in the temperature interval 80 to 40° C. During cooling, the mixture was seeded with escitalopram oxalate at 75, 65 and 60° C. (10 g each time). The crystallization mixture was kept at 15° C. for 10 hours before the crystalline escitalopram oxalate was isolated. Purified escitalopram oxalate (27.7 kg, […]) was obtained by filtration of the crystallization mixture, washing with ethanol and drying of the filter cake.

SMILES | particle size | Particle size distribution, 10% quantile (Quantile 10%, cumulative volume size distribution, Sympatec Helos, 1 bar dispersive pressure) [μm] | Particle size distribution, 50% quantile (median particle size) (Quantile 50%, cumulative volume size distribution, Sympatec Helos, 1 bar dispersive pressure) [μm] | Particle size distribution, 90% quantile (Quantile 90%, cumulative volume size distribution, Sympatec Helos, 1 bar dispersive pressure) [μm]
CN(C)CCC[C@@]1(c2ccc(F)cc2)OCc2cc(C#N)ccc21.O=C(O)C(=O)O [escitalopram oxalate, (S)-1-[3-(dimethylamino)propyl]-1-(4-fluorophenyl)-1,3-dihydro-5-isobenzofurancarbonitrile oxalate, reference compound] | 2-20 μm | – | – | –
CN(C)CCCC1(c2ccc(F)cc2)OCc2cc(C#N)ccc21 (centres unmarked) [citalopram hydrobromide, reference compound] | 2-20 μm | – | – | –
CN(C)CCC[C@@]1(c2ccc(F)cc2)OCc2cc(C#N)ccc21.O=C(O)C(=O)O [Example 1, (S)-1-[3-(dimethylamino)propyl]-1-(4-fluorophenyl)-1,3-dihydro-5-isobenzofurancarbonitrile oxalate] | – | 13 | 163 | 455
